Data: patent US11000033B2, “Ketone or oxime compound, and herbicide” (NISSAN CHEMICAL CORPORATION, priority 2014, dated 2021)

Columns and labels:
Assay type in all cases: in vivo
Scirpus juncoides = assay: Test Example 1: herbicidal activity, application before weed generation in submerged conditions (symbol B); conditions: application herbicide amount 320 g/ha
Procedure, shortened: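 Weed control was rated three weeks after treatment on a 0–5 scale, from 5% or lower up to 90% or more. Pre-emergence water-surface application of diluted emulsion at a predetermined rate was made on the day of sowing, in flooded (4 cm water) pots containing rice seedlings, kept at 25–30 °C under glass.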

transplanted rice plant = assay: Test Example 1: effect on crop, application before weed generation in submerged conditions (symbol a); conditions: application herbicide amount 320 g/ha
Procedure, shortened: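 Rice at 2.5 leaf stage transplanted into submerged soil (4 cm depth) sown with three weed species; herbicide applied before weed emergence.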

Leptochloa chinensis = assay: Test Example 3: herbicidal effect by foliage application, Wagner pot (symbol D); conditions: application herbicide amount 320 g/ha
Procedure, shortened: (§1)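 Herbicidal activity was rated three weeks after a foliar spray of diluted emulsion concentrate, applied at a predetermined dose to plants grown for 14 days from seed in waterlogged alluvial soil within a 25–30 °C greenhouse.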

Cyperus difformis = assay: Test Example 3: herbicidal effect by foliage application, Wagner pot (symbol E); conditions: application herbicide amount 320 g/ha
Procedure, shortened: as §1

[1] = test system: Echinochloa crus-galli var. crus-galli; assay: Test Example 4: herbicidal effect by soil treatment (symbol H)
Procedure, shortened: (§2)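 Seeds were sown in sterilized diluvial soil, covered with about 1.5 cm of soil, and the soil surface was sprayed with a water-diluted emulsion of the compound at a predetermined rate. Plants grew in a greenhouse at 25° C. to 30° C.; effects were scored visually 3 weeks after application.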

Lolium multiflorum Lam. = assay: Test Example 4: herbicidal effect by soil treatment (symbol K)
Procedure, shortened: as §2

Amaranthus retroflexus = assay: Test Example 4: herbicidal effect by soil treatment (symbol N)
Procedure, shortened: as §2

Veronica persica [2] = assay: Test Example 4: herbicidal effect by soil treatment (symbol R)
Procedure, shortened: as §2

corn = assay: Test Example 4: effect on crop by soil treatment (symbol c)
Procedure, shortened: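 Soil-treatment setup: crop and weed seeds were spot-sown into sterilized diluvial soil, then buried beneath approximately 1.5 cm of it, and the boxes were housed in a 25–30° C. greenhouse.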

beet = assay: Test Example 4: effect on crop by soil treatment (symbol f)
Procedure, shortened: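 Plants are raised in a greenhouse (25° C. to 30° C.) from spot-sown seed, which sits under about 1.5 cm of sterilized diluvial soil in a box shared with weed species.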

Setaria viridis = assay: Test Example 5: herbicidal effect by foliage application, plastic box (symbol G); conditions: 320 g/ha, 3 weeks after application
Procedure, shortened: (§3)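 Greenhouse foliar test: seedlings at 14 days, grown 25° C. to 30° C. in sterilized diluvial soil; compound applied as an aqueous dilution of an emulsion; response read 3 weeks after spraying.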

Galium spurium = assay: Test Example 5: herbicidal effect by foliage application, plastic box (symbol Q); conditions: 320 g/ha, 3 weeks after application
Procedure, shortened: as §3

Veronica persica [3] = assay: Test Example 5: herbicidal effect by foliage application, plastic box (symbol R); conditions: 320 g/ha, 3 weeks after application
Procedure, shortened: as §3

soybean = assay: Test Example 5: effect on crop by foliage application, plastic box (symbol d); conditions: 320 g/ha, 3 weeks after application
Procedure, shortened: (§4)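 Soil: sterilized diluvial. Container: plastic box, 21 × 13 cm, 7 cm deep. Sowing: spot-like, ~1.5 cm cover. Growth: greenhouse, 25° C. to 30° C.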

wheat = assay: Test Example 5: effect on crop by foliage application, plastic box (symbol e); conditions: 320 g/ha, 3 weeks after application
Procedure, shortened: as §4

[4] = application herbicide amount 320 g/ha

CON=C(C)CC1CC(OC(=O)C2=CCCC2)=C(c2c(C)cc(C)cc2C)C1=O (centres unmarked) [1-088]
Herbicidal effect grade, B: Scirpus juncoides (Scirpus juncoides): 5 (Herbicidal ratio of 90% or more (almost completely withered)) | Effect grade on crop, a: transplanted rice plant (transplanted rice plant): 5 (Herbicidal ratio of 90% or more (almost completely withered)) | herbicidal effect on D (Leptochloa chinensis), grade 0-5 (Leptochloa chinensis): 5 (Herbicidal ratio of 90% or more (almost completely withered)) | herbicidal effect on E, grade 0-5 (Cyperus difformis): 5 (Herbicidal ratio of 90% or more (almost completely withered)) | H: Echinochloa crus-galli var. crus-galli, herbicidal effect grade ([1]; 320 g/ha): 5 (Herbicidal ratio of 90% or more (almost completely withered)) | K: Lolium multiflorum Lam., herbicidal effect grade (Lolium multiflorum Lam.; 320 g/ha): 5 (Herbicidal ratio of 90% or more (almost completely withered)) | N: Amaranthus retroflexus, herbicidal effect grade (Amaranthus retroflexus; 320 g/ha): 1 (Herbicidal ratio of 5% or higher and lower than 20%) | R: Veronica persica, herbicidal effect grade (Veronica persica [2]; 320 g/ha): 0 (Herbicidal ratio of 5% or lower (almost no effect)) | c: corn, effect grade on crop (corn; 320 g/ha): 4 (Herbicidal ratio of 70% or higher and lower than 90%) | f: beet, effect grade on crop (beet; 320 g/ha): 0 (Herbicidal ratio of 5% or lower (almost no effect)) | G: Setaria viridis, herbicidal effect (criteria 0-5) (Setaria viridis): 5 (Herbicidal ratio of 90% or more (almost completely withered)) | Q: Galium spurium, herbicidal effect (criteria 0-5) (Galium spurium): 0 (Herbicidal ratio of 5% or lower (almost no effect)) | R: Veronica persica, herbicidal effect (criteria 0-5) (Veronica persica [3]): 3 (Herbicidal ratio of 40% or higher and lower than 70%) | d: soybean, effect on crop (criteria 0-5) (soybean): 3 (Herbicidal ratio of 40% or higher and lower than 70%) | e: wheat, effect on crop (criteria 0-5) (wheat): 5 (Herbicidal ratio of 90% or more (almost completely withered))

CON=C(C)CC1CC(OC(=O)COc2cccc(C#N)c2)=C(c2c(C)cc(C)cc2C)C1=O (centres unmarked) [1-074]
Herbicidal effect grade, B: Scirpus juncoides (Scirpus juncoides): 5 (Herbicidal ratio of 90% or more (almost completely withered)) | Effect grade on crop, a: transplanted rice plant (transplanted rice plant): 5 (Herbicidal ratio of 90% or more (almost completely withered)) | herbicidal effect on D (Leptochloa chinensis), grade 0-5 (Leptochloa chinensis): 5 (Herbicidal ratio of 90% or more (almost completely withered)) | herbicidal effect on E, grade 0-5 (Cyperus difformis): 5 (Herbicidal ratio of 90% or more (almost completely withered)) | H (Echinochloa crus-galli var. crus-galli) herbicidal effect grade [1, 4]: 5 (Herbicidal ratio of 90% or more (almost completely withered)) | K (Lolium multiflorum Lam.) herbicidal effect grade (Lolium multiflorum Lam.; [4]): 5 (Herbicidal ratio of 90% or more (almost completely withered)) | N (Amaranthus retroflexus) herbicidal effect grade (Amaranthus retroflexus; [4]): 5 (Herbicidal ratio of 90% or more (almost completely withered)) | R (Veronica persica) herbicidal effect grade (Veronica persica [2]; [4]): 0 (Herbicidal ratio of 5% or lower (almost no effect)) | c (corn) effect on crop grade (corn; [4]): 4 (Herbicidal ratio of 70% or higher and lower than 90%) | f (beet) effect on crop grade (beet; [4]): 0 (Herbicidal ratio of 5% or lower (almost no effect)) | G: Setaria viridis, herbicidal effect (criteria 0-5) (Setaria viridis): 5 (Herbicidal ratio of 90% or more (almost completely withered)) | Q: Galium spurium, herbicidal effect (criteria 0-5) (Galium spurium): 1 (Herbicidal ratio of 5% or higher and lower than 20%) | d: soybean, effect on crop (criteria 0-5) (soybean): 4 (Herbicidal ratio of 70% or higher and lower than 90%) | e: wheat, effect on crop (criteria 0-5) (wheat): 5 (Herbicidal ratio of 90% or more (almost completely withered))

CC(CC1CC(O)=C(c2c(C)cc(Br)cc2C)C1=O)=NOCC(=O)N(C)C (mixture of isomers) [9-029]
D (Leptochloa chinensis) herbicidal effect grade (Leptochloa chinensis; Table 24): 4 (Herbicidal ratio of 70% or higher and lower than 90%) | Herbicidal effect grade, H: Echinochloa crus-galli var. crus-galli [1, 4]: 3 (Herbicidal ratio of 40% or higher and lower than 70%) | Herbicidal effect grade, K: Lolium multiflorum Lam. (Lolium multiflorum Lam.; [4]): 4 (Herbicidal ratio of 70% or higher and lower than 90%) | Herbicidal effect grade, N: Amaranthus retroflexus (Amaranthus retroflexus; [4]): 0 (Herbicidal ratio of 5% or lower (almost no effect)) | Herbicidal effect grade, R: Veronica persica (Veronica persica [2]; [4]): 0 (Herbicidal ratio of 5% or lower (almost no effect)) | Effect on crop grade, c: corn (corn; [4]): 0 (Herbicidal ratio of 5% or lower (almost no effect)) | Effect on crop grade, f: beet (beet; [4]): 0 (Herbicidal ratio of 5% or lower (almost no effect)) | G: Setaria viridis, herbicidal effect grade (Setaria viridis): 3 (Herbicidal ratio of 40% or higher and lower than 70%) | Q: Galium spurium, herbicidal effect grade (Galium spurium): 0 (Herbicidal ratio of 5% or lower (almost no effect)) | R: Veronica persica, herbicidal effect grade (Veronica persica [3]): 0 (Herbicidal ratio of 5% or lower (almost no effect)) | d: soybean, effect on crop grade (soybean): 0 (Herbicidal ratio of 5% or lower (almost no effect)) | e: wheat, effect on crop grade (wheat): 4 (Herbicidal ratio of 70% or higher and lower than 90%)
